This passage reports T/C results from PubChem BioAssay AID330 (DTP/NCI, 2004).

The test system of this assay is P388 leukemia ip, CD2F1 mice, survival T/C. The assay is described as follows: NCI In Vivo Anticancer Drug Screen. Data for tumor model P388 Leukemia (intraperitoneal) in CD2F1 (CDF1) mice. The conditions noted are these: endpoint: median survival time, higher = longer survival. The procedure, abridged: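 Mice carrying the transplanted tumor received test compound or vehicle. Survival was recorded in each group, and the value is the treated-group measurement divided by that of the vehicle-treated control group.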

Where [1] appears, read: dose: 50.0 mg/kg/injection, schedule: Q01DX009 (ip), vehicle: saline with Tween-80.
Where [2] appears, read: dose: 100.0 mg/kg/injection, schedule: Q01DX009 (ip), vehicle: saline with Tween-80.
The mark [3] stands for this setting: dose: 200.0 mg/kg/injection, schedule: Q01DX009 (ip), vehicle: saline with Tween-80.
[4] abbreviates: dose: 50.0 mg/kg/injection, schedule: Q01DX005 (ip), vehicle: saline with Tween-80.
Where [5] appears, read: dose: 100.0 mg/kg/injection, schedule: Q01DX005 (ip), vehicle: saline with Tween-80.
The mark [6] stands for this setting: dose: 200.0 mg/kg/injection, schedule: Q01DX005 (ip), vehicle: saline with Tween-80.
Where [7] appears, read: dose: 25.0 mg/kg/injection, schedule: Q01DX009 (ip), vehicle: saline with Tween-80.
The mark [8] stands for this setting: dose: 100.0 mg/kg/injection, schedule: Q01DX001 (ip), vehicle: saline with Tween-80.
Setting [9] is: dose: 200.0 mg/kg/injection, schedule: Q01DX001 (ip), vehicle: saline with Tween-80.
[10] abbreviates: dose: 400.0 mg/kg/injection, schedule: Q01DX001 (ip), vehicle: saline with Tween-80.

Values joined by “and” are separate entries in the source; they are usually repeats but may differ in a detail not shown here. Equal entries are not always repeated. Inconclusive results and toxic doses are left out.

In the case of `C=CCc1ccc(OC(=O)Nc2ccc(C)cc2[N+](=O)[O-])c(OC)c1`, the T/C under setting [1] was 88 % of control, the T/C under setting [2] is 88 % of control and the T/C under setting [3] is 95 % of control.

For the compound `CCCSc1nc2c(N)nc(-c3ccccc3)nc2nc1N`, the T/C was 108 % of control under setting [1], 105 % of control under setting [2] and 105 % of control under setting [3].

For the compound `CCOC(=O)c1nc[nH]c1C`, the T/C is 100 % of control under setting [4], 101 % of control under setting [5] and 100 % of control under setting [6].

As to `CC1CN(/C=C2\Cc3c(Cl)cccc3C2=O)CCN1c1ccc(Cl)cc1` (centres undefined), the T/C is 100 % of control (dose: 100.0 mg/kg/injection, schedule: Q04DX002 (ip), vehicle: saline); 102 % of control (dose: 200.0 mg/kg/injection, schedule: Q04DX002 (ip), vehicle: saline); 100 % of control (dose: 400.0 mg/kg/injection, schedule: Q04DX002 (ip), vehicle: saline).

As for `Cc1ccc(NC(=O)NC(=O)CCl)cc1`, the T/C runs as follows: (dose: 6.25 mg/kg/injection, schedule: Q01DX009 (ip), vehicle: Klucel (hydroxypropylcellulose) (HPC)) 105 % of control; (dose: 12.5 mg/kg/injection, schedule: Q01DX009 (ip), vehicle: Klucel (hydroxypropylcellulose) (HPC)) 99 % of control; (dose: 25.0 mg/kg/injection, schedule: Q01DX009 (ip), vehicle: Klucel (hydroxypropylcellulose) (HPC)) 101 % of control and 105 % of control; under setting [7], 92 % of control; (dose: 50.0 mg/kg/injection, schedule: Q01DX009 (ip), vehicle: Klucel (hydroxypropylcellulose) (HPC)) 104 % of control and 108 % of control and 113 % of control; (dose: 100.0 mg/kg/injection, schedule: Q01DX009 (ip), vehicle: Klucel (hydroxypropylcellulose) (HPC)) 123 % of control. The T/C under setting [2] was 106 % of control.

Consider `O=c1oc2c(c(N(c3ccccc3)c3ccccc3)c1Cl)CCc1nc(-c3ccccc3)sc1-2`, for which the T/C was 91 % of control under setting [4], 94 % of control under setting [5] and 88 % of control under setting [6].

For the compound `O[C@H]1CCN2CO[C@@H](c3ccccc3)C[C@H]2C1`, the T/C reads like this: (dose: 12.5 mg/kg/injection, schedule: Q01DX005 (ip), vehicle: Klucel (hydroxypropylcellulose) (HPC)) 102 % of control; (dose: 25.0 mg/kg/injection, schedule: Q01DX005 (ip), vehicle: Klucel (hydroxypropylcellulose) (HPC)) 103 % of control; (dose: 50.0 mg/kg/injection, schedule: Q01DX005 (ip), vehicle: Klucel (hydroxypropylcellulose) (HPC)) 102 % of control.

For `N#CC(C(=O)CCC(=O)C(C#N)c1nc2ccccc2s1)c1nc2ccccc2s1` (centres undefined), the T/C is 89 % of control under setting [8], 88 % of control under setting [9] and 91 % of control under setting [10].

Turning to `COC(=O)C#CCO`, the T/C by setting is: (dose: 6.25 mg/kg/injection, schedule: Q01DX009 (ip), vehicle: water) 103 % of control; (dose: 12.5 mg/kg/injection, schedule: Q01DX009 (ip), vehicle: water) 112 % of control and 94 % of control; (dose: 25.0 mg/kg/injection, schedule: Q01DX009 (ip), vehicle: water) 112 % of control and 120 % of control; (dose: 50.0 mg/kg/injection, schedule: Q01DX009 (ip), vehicle: water) 112 % of control and 122 % of control.

For the compound `COC(=O)CC1(C(=O)OC)c2ccc3ccccc3c2N2CCCC21` (centres undefined), the T/C runs as follows: (dose: 100.0 mg/kg/injection, schedule: Q01DX001 (ip), vehicle: saline) 102 % of control; (dose: 200.0 mg/kg/injection, schedule: Q01DX001 (ip), vehicle: saline) 100 % of control; (dose: 400.0 mg/kg/injection, schedule: Q01DX001 (ip), vehicle: saline) 100 % of control.

In the case of `Nc1ccccc1-c1ccccc1[N+](=O)[O-]`, the T/C (dose: 50.0 mg/kg/injection, schedule: Q01DX009 (ip), vehicle: saline) was 95 % of control; the T/C (dose: 100.0 mg/kg/injection, schedule: Q01DX009 (ip), vehicle: saline) is 96 % of control; the T/C (dose: 200.0 mg/kg/injection, schedule: Q01DX009 (ip), vehicle: saline) is 95 % of control.

For `O=C1c2cc([N+](=O)[O-])cc3cc([N+](=O)[O-])cc(c23)C(=O)N1CCNCCN1C(=O)c2cc([N+](=O)[O-])cc3cc([N+](=O)[O-])cc(c23)C1=O`, the T/C reads like this: under setting [4], 100 % of control and 123 % of control; under setting [5], 107 % of control; under setting [6], 105 % of control and 88 % of control.

For `Cc1cccnc1NCc1ccccn1`, the T/C runs as follows: under setting [4], 103 % of control; under setting [5], 100 % of control; under setting [6], 93 % of control.

As for `O=C(O)c1ccc(NC(=S)NNC(=O)c2ccncc2)cc1`, the T/C runs as follows: (dose: 100.0 mg/kg/injection, schedule: Q04DX002 (ip), vehicle: Klucel (hydroxypropylcellulose) (HPC)) 99 % of control; (dose: 200.0 mg/kg/injection, schedule: Q04DX002 (ip), vehicle: Klucel (hydroxypropylcellulose) (HPC)) 102 % of control; (dose: 400.0 mg/kg/injection, schedule: Q04DX002 (ip), vehicle: Klucel (hydroxypropylcellulose) (HPC)) 100 % of control.

Regarding `CN1CCC/C1=N\S(=O)(=O)/N=C1\CCCN1C`, the T/C (dose: 50.0 mg/kg/injection, schedule: Q01DX005 (ip), vehicle: saline) was 92 % of control; the T/C (dose: 100.0 mg/kg/injection, schedule: Q01DX005 (ip), vehicle: saline) was 100 % of control; the T/C (dose: 200.0 mg/kg/injection, schedule: Q01DX005 (ip), vehicle: saline) is 99 % of control.

Turning to `O=C(O)CCCCC1SCC2NC(=O)NC21` (centres undefined), the T/C reads like this: under setting [1], 100 % of control; under setting [2], 108 % of control; under setting [3], 108 % of control.

`C/C=C\c1noc2c1C(=O)OC(C)C2` (centres undefined): the T/C reads like this: (dose: 60.0 mg/kg/injection, schedule: Q01DX005 (ip), vehicle: saline with Tween-80) 104 % of control; (dose: 120.0 mg/kg/injection, schedule: Q01DX005 (ip), vehicle: saline with Tween-80) 96 % of control; (dose: 240.0 mg/kg/injection, schedule: Q01DX005 (ip), vehicle: saline with Tween-80) 103 % of control.

As to `O=c1c(N=Nc2nc3ccccc3s2)c(O)n(-c2ccccc2)c(=S)n1-c1ccccc1`, the T/C (dose: 60.0 mg/kg/injection, schedule: Q01DX005 (ip), vehicle: saline) was 109 % of control; the T/C (dose: 120.0 mg/kg/injection, schedule: Q01DX005 (ip), vehicle: saline) was 100 % of control; the T/C (dose: 240.0 mg/kg/injection, schedule: Q01DX005 (ip), vehicle: saline) was 106 % of control.

As for `NS(=O)(=O)c1nc2nc[nH]c(=O)c2[nH]1`, the T/C is, setting by setting: under setting [4], 100 % of control; under setting [5], 106 % of control; under setting [6], 101 % of control.

As for `COc1ccc(C(C)c2cc3c(cc2OCCO)OCO3)cc1` (centres undefined), the T/C by setting is: under setting [4], 105 % of control; under setting [5], 102 % of control; under setting [6], 105 % of control.

`O=C(Nc1ccc(C(=O)O)cc1)Oc1ccc(N(CCCl)CCCl)cc1`: the T/C runs as follows: under setting [7], 209 % of control; under setting [1], 159 % of control; (dose: 66.0 mg/kg/injection, schedule: Q04DX003 (ip), vehicle: saline with Tween-80) 200 % of control; (dose: 100.0 mg/kg/injection, schedule: Q04DX003 (ip), vehicle: saline with Tween-80) 181 % of control and 200 % of control.

Take `CCOc1ccc(-n2c(=O)c(N=Nc3ccccc3C)c(O)n(-c3ccc(Br)cc3)c2=S)cc1`: the T/C is, setting by setting: under setting [8], 98 % of control; under setting [9], 92 % of control; under setting [10], 105 % of control.

In the case of `COc1ccc(C(=O)c2cc3c(ccc4ccccc43)oc2=O)cc1`, the T/C was 98 % of control (dose: 6.25 mg/kg/injection, schedule: Q01DX009 (ip), vehicle: saline); 96 % of control (dose: 12.5 mg/kg/injection, schedule: Q01DX009 (ip), vehicle: saline); 90 % of control (dose: 25.0 mg/kg/injection, schedule: Q01DX009 (ip), vehicle: saline).

With `Fc1ccc2[nH]cc(C3CCCN4CCCCC34)c2c1` (centres undefined), the T/C was 95 % of control (dose: 12.5 mg/kg/injection, schedule: Q01DX001 (ip), vehicle: saline with Tween-80); 101 % of control (dose: 25.0 mg/kg/injection, schedule: Q01DX001 (ip), vehicle: saline with Tween-80); 102 % of control (dose: 50.0 mg/kg/injection, schedule: Q01DX001 (ip), vehicle: saline with Tween-80); 101 % of control under setting [8].

As to `OC(c1cc2cc(Cl)ccc2c2cc(C(F)(F)F)ccc12)C1CCCCN1` (centres undefined), the T/C by setting is: (dose: 6.25 mg/kg/injection, schedule: Q01DX009 (ip), vehicle: saline with Tween-80) 106 % of control; (dose: 12.5 mg/kg/injection, schedule: Q01DX009 (ip), vehicle: saline with Tween-80) 106 % of control.

Regarding `COc1cc2c(cc1O)C(c1cc(O)c(O)c(OC)c1)C(O)(C(=O)O)C(CO)C2O` (centres undefined), the T/C was 100 % of control under setting [4], 101 % of control under setting [5] and 99 % of control under setting [6].
